According to patent US4534980A, “Antiinflammatory and antipyretic cream” (Hokuriku Pharmaceutical Co., Ltd., priority 1984, dated 1985):

Tests used:
[1] = test system: carrageenin induced paw edema; details: 5 mg/kg, Folia Pharmacologica Japonica vol. 70, page 543 (1974); cited from earlier work
[2] = test system: carrageenin induced paw edema; assay: Antiinflammatory effect on carrageenin induced paw edema (Experiments 3, 8); type: in vivo, Wistar male rats; details: inhibition rate in oral administration = 1.00
Procedure: The antiinflammatory effect of the test compositions in Experiment 1 was determined by an effect on carrageenin induced paw edema. The experiment was performed using 8 Wistar male rats weighing approximately 170 g per one group. After previously measuring the volume of left hind paw, 50 mg each of the test compositions (stored at room temperature for one month after the preparation) was applied twice, left hind paw of the rat, 2 hours and 1 hour before injection of an inflammatory agent. As the inflammatory agent, 0.1 ml of a 1% carrageenin solution was subcutaneously injected at the left hind paw. The volume of the left hind paw was measured 3 hours after and a swelling was determined based on the volume before injecting the inflammatory agent. A group in which no test composition was applied was made a control group and the inhibition rate was calculated based thereon as follows. [formula]
The antiinfammatory effect was examined with the test compositions of Experiment 7, in a manner similar to Experiment 3.

CC(C(=O)O)c1cccc(C(=O)c2ccccc2)c1 (centres unmarked) [Ketoprofen]
Inhibition Rate, Oral Administration (Table 3) [1]: 45.9% | Potency Ratio (Table 3) [2]: 1.00
